Consider 6 compounds from US6861390B2, “Derivatives of UK-2A” (priority 2001, dated 2005).

What is called inhibition is the share of the control response that was lost under treatment. A word on the melting point: it is the temperature of the solid-liquid transition.

Series [1] has as its system Leptosphaeria nodorum (LEPTNO). As to the kind of experiment: Glume Blotch of Wheat, whole plant 24 Hour Protectant (T2). The following applies: Parastagonospora nodorum; wheat (cultivar Yuma), sprayed at 100 ppm, inoculated after 24 hours; read-out: T2 LEPTNO in vivo 1 Day Protectant, control of fungal infection.
The test system of series [2] is Phytophthora infestans (PHYTIN). The series is described as follows: whole plant or invertebrate. The following applies: in Solanum lycopersicum, 24 h, read-out: T3 PHYTIN in vivo 1 Day Protectant, control of fungal infection.
In series [3] the test system is Puccinia recondita (PUCCRT). The series is described as follows: Brown Rust of Wheat, whole plant 24 Hour Protectant (T5). The following applies: wheat (cultivar Yuma), sprayed at 100 ppm, inoculated after 24 hours, read-out: T5 PUCCRT in vivo 1 Day Protectant, control of fungal infection.
For series [4], the system named is Septoria tritici (SEPTTR). The series is described as follows: Leaf Blotch of Wheat, whole plant 24 Hour Protectant (T6). The following applies: Zymoseptoria tritici; wheat (cultivar Monon), sprayed at 100 ppm, inoculated after 24 hours; read-out: T6 SEPTTR in vivo 1 Day Protectant, control of fungal infection.
Series [5] deals with Stagonospora nodorum (Leptosphaeria nodorum, LEPTNO). The series is described as follows: microbe, parasite or virus in culture. It counts as cell-based. The following applies: Parastagonospora nodorum, read-out: T7 LEPTNO in vitro Growth Inhibition.
Series [6] relates to Phytophthora infestans (PHYTIN). As to the kind of experiment: microbe, parasite or virus in culture. It counts as cell-based. The following applies: in Secale cereale, read-out: T8 PHYTIN in vitro Growth Inhibition.
In series [7] the test system is Magnaporthe grisea (Pyricularia oryzae, PYRIOR). As to the kind of experiment: microbe, parasite or virus in culture. The following applies: read-out: T9 PYRIOR in vitro Growth Inhibition. It counts as cell-based.
Series [8] deals with Rhizoctonia solani (RHIZSO). The series is described as follows: microbe, parasite or virus in culture. It counts as cell-based. The following applies: read-out: T10 RHIZSO in vitro Growth Inhibition.
The subject of series [9] is Mycosphaerella graminicola (Septoria tritici, SEPTTR). As to the kind of experiment: microbe, parasite or virus in culture. It counts as cell-based. The following applies: Zymoseptoria tritici, read-out: T11 SEPTTR in vitro Growth Inhibition.
A further series deals with Ustilago maydis (USTIMA). The series is described as follows: microbe, parasite or virus in culture. It counts as cell-based. The following applies: Mycosarcoma maydis, read-out: T12 USTIMA in vitro Growth Inhibition.
The test system of series [10] is Erysiphe graminis (ERYSGT). As to the kind of experiment: Powdery Mildew of Wheat, whole plant 24 Hour Protectant (T1). The following applies: Blumeria graminis, in Triticum aestivum, read-out: T1 ERYSGT in vivo 1 Day Protectant, control of fungal infection.
Experimental: Compound formulation was accomplished by dissolving technical materials in acetone, with serial dilutions then made in acetone to obtain desired concentrations. Final treatment volumes were obtained by adding 9 volumes 0.01% Triton X-100.
Powdery Mildew of Wheat (Erysiphe graminis—ERYSGT) (24 Hour Protectant): Wheat (cultivar Monon) was grown in a soilless peat-based potting mixture (“Metromix”) and mineral soil (50/50 mix) until the seedlings were 10-20 cm tall. These plants were then sprayed to run-off with the test compound at a rate of 100 ppm. After 24 hours the test plants were inoculated by dusting with conidia from powdery mildew infected wheat plants. The plants were then transferred to the greenhouse until disease developed on the untreated control plants.

Where only a bound is given, the exact number is not on record here.

Turning to `COc1ccnc(C(=O)N[C@H]2COC(=O)[C@H](Cc3ccccc3)[C@@H](OC(=O)C(C)C)[C@H](C)OC2=O)c1OCOC(=O)c1ccccc1` [Compound 29], the melting point lay in the range of 65 to 70 °C. In series [1], the pest or weed control at 100 ppm is 75 to 100%. Besides, the pest or weed control at 100 ppm in [2] is less than 25%. The pest or weed control at 100 ppm in series [3] was in the range of 75 to 100%. The pest or weed control at 100 ppm in [4] fell in the range of 75 to 100%. Further, in series [5], the inhibition at 25 ppm was more than 80%. In addition, in [6], the inhibition at 25 ppm is less than 80%. In addition, the inhibition at 25 ppm in series [7] was less than 80%. Moreover, in series [8], the inhibition at 25 ppm is less than 80%. For the same compound, the inhibition at 25 ppm in series [9] was less than 80%. Also, the inhibition at 25 ppm in the series on Ustilago maydis (USTIMA) is less than 80%. In [10], the pest or weed control at 100 ppm is 25 to 74%.

The compound `CCOCC(=O)OCOc1c(OC)ccnc1C(=O)N[C@H]1COC(=O)[C@H](Cc2ccccc2)[C@@H](OC(=O)C(C)C)[C@H](C)OC1=O` [Compound 31] yielded a melting point of 79 to 81 °C. Moreover, in series [1], the pest or weed control at 100 ppm was in the range of 75 to 100%. The pest or weed control at 100 ppm in [2] was less than 25%. Moreover, in series [3], the pest or weed control at 100 ppm was 75 to 100%. Besides, the pest or weed control at 100 ppm in [4] fell in the range of 75 to 100%. Also, in [5], the inhibition at 25 ppm was more than 80%. Besides, the inhibition at 25 ppm in series [6] was less than 80%. Also, in series [7], the inhibition at 25 ppm is more than 80%. In addition, the inhibition at 25 ppm in series [8] is less than 80%. Also, in series [9], the inhibition at 25 ppm was less than 80%. Further, in the series on Ustilago maydis (USTIMA), the inhibition at 25 ppm is less than 80%. Moreover, the pest or weed control at 100 ppm in [10] fell in the range of 25 to 74%.

`COc1ccnc(C(=O)N[C@H]2COC(=O)[C@H](Cc3ccccc3)[C@@H](OC(=O)C(C)C)[C@H](C)OC2=O)c1OCOC(=O)C1CCCC1` [Compound 33] had a melting point of 128 to 129 °C. The pest or weed control at 100 ppm in [1] was 75 to 100%. Besides, the pest or weed control at 100 ppm in [2] is less than 25%. For the same compound, the pest or weed control at 100 ppm in series [3] was 75 to 100%. In series [4], the pest or weed control at 100 ppm was in the range of 75 to 100%. Besides, the inhibition at 25 ppm in series [5] is more than 80%. The inhibition at 25 ppm in series [6] was less than 80%. In [7], the inhibition at 25 ppm was more than 80%. The inhibition at 25 ppm in [8] is less than 80%. In addition, the inhibition at 25 ppm in series [9] is less than 80%. In the series on Ustilago maydis (USTIMA), the inhibition at 25 ppm was less than 80%. The pest or weed control at 100 ppm in series [10] is 25 to 74%.

`COC(=O)OCOc1c(OC)ccnc1C(=O)N[C@H]1COC(=O)[C@H](Cc2ccccc2)[C@@H](OC(=O)C(C)C)[C@H](C)OC1=O` [Compound 44]: the melting point was in the range of 140 to 144 °C. In series [1], the pest or weed control at 100 ppm lay within 75 to 100%. For the same compound, the pest or weed control at 100 ppm in series [2] is less than 25%. For the same compound, in series [3], the pest or weed control at 100 ppm was in the range of 75 to 100%. For the same compound, in [4], the pest or weed control at 100 ppm lay in the range of 75 to 100%. In addition, the inhibition at 25 ppm in [5] is more than 80%. For the same compound, the inhibition at 25 ppm in series [6] is less than 80%. Further, the inhibition at 25 ppm in series [7] was less than 80%. Moreover, in series [8], the inhibition at 25 ppm was less than 80%. In addition, the inhibition at 25 ppm in [9] is more than 80%. The inhibition at 25 ppm with Ustilago maydis (USTIMA) was less than 80%. In addition, the pest or weed control at 100 ppm in series [10] was 25 to 74%.

`COc1ccnc(C(=O)N[C@H]2COC(=O)[C@H](Cc3ccccc3)[C@@H](OCC(C)C)[C@H](C)OC2=O)c1OCOC(C)=O` [Compound 49] yielded a melting point of 130 to 131 °C. Besides, in series [1], the pest or weed control at 100 ppm lay in the range of 75 to 100%. For the same compound, the pest or weed control at 100 ppm in series [2] fell in the range of 25 to 74%. Moreover, in series [3], the pest or weed control at 100 ppm was in the range of 75 to 100%. Further, the pest or weed control at 100 ppm in series [4] was 75 to 100%. For the same compound, the inhibition at 25 ppm in [5] was more than 80%. Moreover, the inhibition at 25 ppm in series [6] is less than 80%. Moreover, the inhibition at 25 ppm in [7] is more than 80%. Also, the inhibition at 25 ppm in series [8] is less than 80%. Moreover, the inhibition at 25 ppm in series [9] is more than 80%. In addition, the inhibition at 25 ppm in the series on Ustilago maydis (USTIMA) was less than 80%. Further, in series [10], the pest or weed control at 100 ppm was 75 to 100%.

As for `COc1ccnc(C(=O)N[C@H]2COC(=O)[C@H](Cc3ccccc3)[C@@H](OC3CCCC3)[C@H](C)OC2=O)c1OCOC(C)=O` [Compound 50], the melting point lay in the range of 130 to 132 °C. In addition, the pest or weed control at 100 ppm in series [1] is 75 to 100%. Also, the pest or weed control at 100 ppm in [2] is 25 to 74%. In addition, the pest or weed control at 100 ppm in [3] was in the range of 75 to 100%. For the same compound, the pest or weed control at 100 ppm in series [4] is 75 to 100%. Further, the inhibition at 25 ppm in series [5] is more than 80%. The inhibition at 25 ppm in series [6] is less than 80%. Besides, the inhibition at 25 ppm in series [7] is more than 80%. The inhibition at 25 ppm in series [8] was less than 80%. Also, the inhibition at 25 ppm in series [9] was less than 80%. Further, the inhibition at 25 ppm in the series with Ustilago maydis (USTIMA) is less than 80%. The pest or weed control at 100 ppm in [10] was 25 to 74%.
